Source: patent US20160137714A1 (Thrasos Innovation, Inc., priority 2014, published 2016)
Positions of bridges follow the written chain, without caps; N, C: chain ends. Residues, ends and D or L forms follow the SMILES beside them.

Assay: Pharmacokinetic studies of THR-123 and GPR-294 i.v. and s.c. (FIG. 13, FIGS. 5-8)
Type: in vivo
Conditions: in vivo; s.c. versus i.v., FIG. 13; read-out: bioavailable by sub-cutaneous administration
Experimental: A stock solution of THR-123 was prepared at 250 μg/mL in DMSO. This solution was quantitatively added to blank mouse plasma to generate a calibration curve. The linear range was from 0.25 to 250 ng/mL. A 175 μL aliquot of plasma from removed from each calibrant tube and processed using solid phase extraction (SPE). Study samples were first diluted with blank control mouse plasma, and 175 μL was aliquoted for processing using SPE. An internal standard working solution (ISWS) was added to each calibrant and study sample (GPR-227 at 100 ng/mL in water). Plasma proteins were precipitated with 175 μL of methanol with 0.5% acetic acid (v/v). After centrifugation at 14,800 RPM for 10 minutes, a 300 μL aliquot of supernatant was diluted in water with 4% phosphoric acid (v/v). The entire diluted sample was extracted by SPE using a Waters Oasis HLB 96-well μElution plate. Samples were washed twice using a solution of acidified water (0.1% TFA, v/v) and 15% MeOH in water (v/v). Purified extracts were eluted into a 96-well collection plate using 40 μL of elution solvent. Standards and study samples were injected onto a Thermo Q-exactive LC-MS/MS system. Chromatographic separation was performed using a reversed-phase C18 HPLC column (Waters CSH C18, 50×2.1 mm, 2.5 μm). Analyte and internal standard were detected using the targeted selected ion monitoring (tSIM) scan mode. Calibration curves were generated by using a weighted (1/concentration^2) linear regression of the peak area ratios (analyte/internal standard) versus the nominal concentration of the calibration standards. The concentration of the analyte in the study samples was determined by back-calculating the peak area ratios obtained using the linear regression and applying the appropriate dilution factors.
The study described herein involved single (mouse) or multiple (rat) blood collections after test article administration. Test articles are given by oral (PO), intravenous (IV), subcutaneous (SC) or intraperitoneal (IP) routes. All animals have a five day acclimatization period before dosing. Body weights are recorded prior to dosing. […]

bioavailability: 81%
Structure (SMILES): CC(C)C[C@@H]1NC(=O)[C@H](C(C)C)NC(=O)[C@H](CC(N)=O)NC(=O)[C@H](CO)NC(=O)[C@H](CO)NC(=O)[C@H](CC(=O)O)NC(=O)[C@H](CC(=O)O)NC(=O)[C@H](Cc2ccccc2)NC(=O)[C@H](Cc2ccc(O)cc2)NC(=O)[C@@H](N)CSSC[C@@H](C(=O)N[C@@H](CCCCN)C(=O)N[C@@H](CCCCN)C(=O)N[C@@H](Cc2ccc(O)cc2)C(=O)N[C@@H](CCCNC(=N)N)C(=O)N[C@@H](CO)C(=O)O)NC1=O [THR-123, Cys-Tyr-Phe-Asp-Asp-Ser-Ser-Asn-Val-Leu-Cys-Lys-Lys-Tyr-Arg-Ser] (H-CYFDDSSNVLCKKYRS-OH; disulfide 1-11)
